From patent US10232023B2, “Methods for treatment of and prophylaxis against inflammatory disorders” (THE UNIVERSITY OF UTAH RESEARCH FOUNDATION, priority 2013, dated 2019)
Entries after “also recorded” stand apart in the source; their conditions may differ.

Columns and labels:
[1] = test system: human PMNs incubated with live S. aureus; assay: NET formation by human PMNs incubated with live S. aureus; type: cell-based; details: pretreatment 1 nM; live S. aureus (MOI 100)
Protocol: A human histone H3 release assay was used to quantify NET formation (n=2). NET-inhibitory activity of CRISPP was tested using in vitro models of two human infectious diseases: Staphylococcus aureus bacteremia and dengue fever.
Qualitative assessment of NET formation was performed as previously referenced in Yost et al., Blood, 2009, 113: 6419-6427 and McInturff et al., Blood, 2012, 120: 3118-3125. Briefly, primary PMNs isolated from preterm infants, healthy term infants, and healthy adults (2×10^6 cells/mL) were incubated with control buffer or stimulated with LPS (100 ng/mL), PMA (20 nM), or S. aureus bacteria (MOI 100) for 1 hour at 37° C. in 5% CO2/95% air on glass coverslips coated with poly-L-lysine. For selected experiments, primary PMNs were pre-incubated with autologous plasma, cord blood plasma, nNIF (1 nM), CRISPP (1 nM), or SCR (1 nM) for 1 hour prior to imaging. After pre-incubation and/or stimulation, PMNs were gently washed with PBS and incubated with a mixture of cell permeable (SYTO Green, MOLECULAR PROBES) and impermeable (SYTOX Orange, MOLECULAR PROBES) DNA fluorescent dyes. Confocal microscopy was accomplished using a FV300 1×81 Microscope and FLUOVIEW software (OLYMPUS). Both 20× and 60× objectives were used. […]
Supernatant total histone H3 content was determined as previously referenced in McInturff et al., Blood, 2012, 120: 3118-3125. […]

[2] = test system: human PMNs (killing of a pathogenic strain of E. coli); assay: Bacterial killing of E. coli by human PMNs; type: cell-based; details: LPS-stimulated (100 ng/mL) PMNs; pretreatment 1 nM
Protocol: Total, phagocytotic, and NET-mediated extracellular bacterial killing of a pathogenic strain of E. coli by human PMNs±LPS stimulation (100 ng/mL) was assessed, and the results are summarized in FIG. 9. PMNs were also pretreated with CRISPP (1 nM), or a scrambled control peptide control (1 nM). Phagocytotic killing was inhibited with cytochalasin B and D pretreatment (10 μM). NET-mediated killing was inhibited using DNase treatment to dismantle NETs prior to addition of the bacteria.
Bacterial killing efficiency of primary human PMNs was determined as previously described in Yost et al., Blood, 2009, 113: 6419-6427. PMNs were incubated for 30 minutes at 37° C. in 5% CO2/95% air alone or with the phagocytosis inhibitors cytochalasin B and D (10 μM). The leukocytes were then stimulated with LPS (100 ng/mL), placed in poly-L-lysine-coated wells of a 24-well tissue culture plate, and incubated at 37° C. for 1 hour to induce cellular activation and formation of NETs. To inhibit NET-mediated bacterial killing, we incubated selected wells with DNase (40 U/mL) for 15 minutes prior to addition of bacteria. E. coli (1 cfu/100 PMN) were added to the PMNs, followed by continued incubation for 2 hours. The PMNs were then permeabilized with 0.1% Triton-X 100 for 10 minutes and each well was scraped to free all cells. Serial dilutions were performed and bacterial cultures were grown on 5% sheep blood agar plates (HARDY DIAGNOSTICS). After a 24-hour incubation, bacterial counts were determined. Total, phagocytotic, and fractional NET-mediated bacterial killing were determined as described above.

[3] = test system: outbred Swiss mice, intraperitoneal injection of E. coli; assay: Survival after intraperitoneal E. coli; type: in vivo, mouse
Protocol: FIG. 10B is a graph tracking survival of outbred Swiss mice in various treatment arms following intraperitoneal injection of E. coli (4×10^7 bacteria). As in FIG. […] The same dose, delivery route, and schedule were followed for the scrambled peptide control mice. Here, 10 mice were assessed in each group: no treatment, E. coli plus CRISPP, and E. coli plus scrambled peptide.
Survival of outbred Swiss mice was tracked in various treatment arms following intraperitoneal injection of either LPS (20 mg/kg) or E. coli (4×10^7 bacteria), as shown in FIGS. 10A and 10B. […] The same dose, delivery route, and schedule were followed for the scrambled control peptide control mice. Six mice were assessed in both groups: LPS+CRISPP and LPS+scrambled control peptide. […] Ten mice were assessed in each group: no treatment, E. coli+CRISPP, and E. coli+scrambled control peptide. No antibiotics were given. No deaths occurred in the no treatment group. […] Referring to FIG. 11, CRISPP was also evaluated in a murine model of polymicrobial infection caused by cecal ligation and puncture (CL/P). CL/P was also performed without concomitant antibiotic treatment. Ten mice were assessed in each of the CL/P groups. […]
[…] Survival was assessed over 6 days at 6 hour to 12 hour intervals.

Cancer-Associated SCM-Recognition, Immune Defense Suppression, and Serine Protease Protection Peptide [CRISPP, nNIF-related peptide (nNRP)]
NET formation induced by S. aureus [1]: completely blocked NET formation; also recorded: inhibited NET formation | NET-mediated extracellular bacterial killing of E. coli [2]: significantly decreased | Phagocytotic bacterial killing of E. coli [2]: did not alter; also recorded: not different | Total bacterial killing of E. coli [2]: significantly decreased | Survival, post-infection treatment ([3]; CRISPP-Post/E. coli vs SCR-Post/E. coli, peptide 4 hours after infection): approached statistical significance | Survival ([3]; E. coli 4×10^7 IP, 10 mcg/kg/dose IP, 1 hour prior and 6 hours after, vs E. coli+scrambled peptide, p<0.0001): statistically greater
